Measurements published in patent publication US10710986B2, “PD-1/PD-L1 inhibitors” (Gilead Sciences, Inc., priority 2018, dated 2020).

The molecules below were run against PD-1/PD-L1 (Homo sapiens (Human), UniProt Q9NZQ7) (assay: PD-1/PD-L1 biochemical protein-protein interaction assay (ALPHA)). Settings: 0.3 nM His tagged PD-L1, 2.5 nM biotinylated Fc-PD-1, 60 minutes at 25° C., read-out: IC50 PD-L1-PD1.
Chain of PD-1/PD-L1 (Q9NZQ7 19-238): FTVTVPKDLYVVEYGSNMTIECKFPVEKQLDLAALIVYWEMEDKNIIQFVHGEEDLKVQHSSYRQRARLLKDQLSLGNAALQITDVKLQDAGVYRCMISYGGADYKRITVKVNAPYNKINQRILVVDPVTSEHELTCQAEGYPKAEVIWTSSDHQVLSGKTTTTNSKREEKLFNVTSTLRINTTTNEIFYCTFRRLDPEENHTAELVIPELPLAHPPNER
Protocol: Binding of the protein pairs is measured using a bead based Amplified Luminescent Proximity Homogeneous Assay (ALPHA) platform. Binding of each protein pair results in proximity of the donor and acceptor beads which leads to an increase in ALPHA signal. […] Assays are performed in 25 mM Hepes (pH 7.4), 150 mM NaCl, 3.4 mM EDTA, 0.005% Tween 20, and 0.01% BSA. […] After an assay reaction time of 60 minutes at 25° C., binding was measured with addition of 20 μg/mL ALPHA assay acceptor beads (anti-His coated) and 20 µg/mL ALPHA assay donor beads (streptavidin coated). IC50 values were calculated from the fit of the dose-response curves to a four-parameter equation.
For `COc1nc(-c2cccc(-c3cccc(-c4cnc(CN[C@@H]5CC[C@@H]6CC(=O)N[C@@H]65)c(OC)n4)c3Cl)c2Cl)cnc1CN[C@@H]1CC[C@@H]2CC(=O)N[C@@H]21` [compound 388], the IC50 was 1.22 nM.
`COc1nc(-c2cccc(-c3cccc(-c4cnc(CNC[C@@H]5CCC(=O)N5)c(OC)n4)c3Cl)c2Cl)cnc1CNCC1CCN(C(N)=O)C1` (stereo partly shown) [compound 471] gave an IC50 of 0.119 nM.
Molecule `COc1nc(-c2cccc(-c3cccc(-c4cnc(CN5CC6(C5)CN(C(C)=O)C6)c(OC)n4)c3Cl)c2Cl)cnc1CNC[C@H]1CCC(=O)N1` [compound 192] has an IC50 of 0.156 nM.
Work on `COc1nc(-c2cccc(-c3cccc(-c4cnc(CN[C@H]5COCC[C@@H]5O)c(OC)n4)c3Cl)c2Cl)cnc1CNC[C@@H]1CCC(=O)N1` [compound 336] yielded an IC50 of 0.137 nM.
With `COc1nc(-c2cccc(-c3cccc(-c4cnc(CNCC5(C#N)CC5)c(OC)n4)c3Cl)c2Cl)cnc1CNC[C@@H]1CCC(=O)N1` [compound 429] the IC50 was 0.349 nM.
`COc1nc(-c2cccc(-c3cccc(-c4cnc(CN[C@@H]5CCC5C)c(OC)n4)c3Cl)c2Cl)cnc1CNC[C@@H]1CCC(=O)N1` (stereo partly shown) [compound 469] showed an IC50 of 0.26 nM.
With `COc1nc(-c2cccc(-c3cccc(-c4cnc(CN[C@H]5CCC[C@H]5O)c(OC)n4)c3Cl)c2Cl)ccc1CNC[C@@H]1CNC(=O)C1` [compound 640] the IC50 was 0.167 nM.
`COc1nc(-c2cccc(-c3cccc(-c4cnc(CN[C@H](C)[C@@H]5CCC(=O)N5)c(OC)n4)c3Cl)c2Cl)cnc1CN[C@H](C)[C@@H]1CCC(=O)N1` [compound 601] showed an IC50 of 0.196 nM.
`COc1nc(-c2cccc(-c3cccc(-c4cnc(CNC[C@@H]5CCC(=O)N5)c(OC)n4)c3Cl)c2Cl)ccc1CNC1CCOCC1` [compound 162] gave an IC50 of 0.116 nM.
`COc1nc(-c2cccc(-c3cccc(-c4cnc(CN5CCC(C)(O)C5)c(OC)n4)c3Cl)c2Cl)cnc1CNC[C@@H]1CCC(=O)N1` (stereo partly shown) [compound 174] showed an IC50 of 0.219 nM.
`COc1nc(-c2cccc(-c3cccc(-c4cnc(CN5CC6(C5)CC(C)(O)C6)c(OC)n4)c3Cl)c2Cl)cnc1CNC[C@@H]1CCC(=O)N1` [compound 307] gave an IC50 of 0.167 nM.
For `COc1nc(-c2cccc(-c3cccc(-c4cnc(CN5CCCC(NC(C)=O)C5)c(OC)n4)c3Cl)c2Cl)cnc1CNC[C@H]1CCC(=O)N1` (stereo partly shown) [compound 285], the IC50 was 0.358 nM.
`COc1nc(-c2cccc(-c3cccc(-c4cnc(CNC[C@H]5CCCN5C(C)=O)c(OC)n4)c3Cl)c2Cl)cnc1CNC[C@@H]1CCC(=O)N1` [compound 17] gave an IC50 of 0.163 nM.
In the case of `COc1nc(-c2cccc(-c3cccc(-c4cnc(CN5CC(C)(C#N)C5)c(OC)n4)c3Cl)c2Cl)cnc1CNC[C@@H]1CCC(=O)N1` [compound 9], the IC50 is reported as 0.49 nM.
With `COc1nc(-c2cc(F)cc(-c3cc(F)cc(-c4cnc(CNC[C@@H]5CCC(=O)N5)c(OC)n4)c3Cl)c2Cl)cnc1CNC[C@@H]1CCC(=O)N1` [compound 397] the IC50 was 0.561 nM.
With `CNc1nc(-c2cccc(-c3cccc(-c4cnc(CN5CC6(CNC(=O)C6)C5)c(OC)n4)c3Cl)c2Cl)cnc1CN1CC2(CNC(=O)C2)C1` [compound 61] the IC50 was 0.07 nM.
In the case of `COc1nc(-c2cccc(-c3cccc(-c4cnc(CNC[C@@H]5CCC(=O)N5)c(OC)n4)c3Cl)c2Cl)cnc1CNCC1CCS(=O)(=O)N1` (stereo partly shown) [compound 306], the IC50 is reported as 0.245 nM.
`COc1nc(-c2cccc(-c3cccc(-c4cnc(CNCC5(O)CC5)c(OC)n4)c3Cl)c2Cl)cnc1CNC[C@@H]1CCC(=O)N1` [compound 426] showed an IC50 of 0.273 nM.
Work on `COc1nc(-c2cccc(-c3cccc(-c4cnc(CN5CC[C@H](NC(C)=O)C5)c(OC)n4)c3Cl)c2Cl)cnc1CNC[C@H]1CCC(=O)N1` [compound 204] yielded an IC50 of 0.11 nM.
`COc1nc(-c2cccc(-c3cccc(-c4cnc(CNC[C@@H]5CCC(=O)N5)c(OC)n4)c3Cl)c2Cl)cnc1CNCC[C@H]1CNC(=O)C1` [compound 541] gave an IC50 of 0.094 nM.
Molecule `COc1nc(-c2cccc(-c3cccc(-c4cnc(CN5CC(NS(C)(=O)=O)C5)c(OC)n4)c3Cl)c2Cl)cnc1CN1CC(NS(C)(=O)=O)C1` [compound 556] has an IC50 of 0.176 nM.
With `COc1nc(-c2cccc(-c3cccc(-c4cnc(CNC[C@H]5C[C@](C)(O)C5)c(OC)n4)c3Cl)c2Cl)cnc1CNC[C@H]1C[C@](C)(O)C1` [compound 563] the IC50 was 0.431 nM.
